# Laboratory results as given in patent US4271189A, “Lithium derivatives of taurine having reinforced neuro-muscular activity” (Les Laboratoires Meram, priority 1977, dated 1981).
# Where a name gives a salt, the structure may show the parent alone. Read-outs that look alike come from different tables or passages of the source.
# What was measured:
# [1] = Minimum lethal dose by intravenous route in male rabbits; assay type: in vivo, male rabbit
# Protocol: This reduction of acute toxicity was confirmed by the evaluation of the minimum lethal dose by intraveinous route in male rabbits, comparatively beween lithium citrate and lithium N-acetyltaurinate:
# In the same experimental conditions, the minimum lethal dose is 42 mg of lithium with lithium citrate, and 204 mg lithium with lithium N-acetyltaurinate.
# [2] = Acute toxicity (LD50) in the male mouse, intraperitoneal and oral routes
# Excerpt: The acute toxicity of the compounds according to the invention was studied by the intraperitoneal route in the male mouse. The results obtained were as follows:
# The value of lithium salts in the treatment of depressions and in particular of manic-depressive psychosis, is well-known. But the major disadvantage of this therapy resides in the toxicity of the currently known salts (carbonate, citrate, gluconate).
# [3] = Investigation behaviour of the mouse, "Holed board" test; assay type: in vivo
# Excerpt: (§1) 1. The investigation behaviour of the mouse was studied by the "Holed board" test (Boissier and Simon; Arch. Int. Pharmacodyn. 1964, 147, 3-4),
# [4] = Spontaneous motility of the mouse, Boissier's photoelectric actimeter; assay type: in vivo
# Excerpt: (§2) 2. The study of the spontaneous motility of the mouse was made by using Boissier's photoelectric actimeter.
# [5] = Motility of mice after amphetamine-acetyl-taurinate interaction (photoelectric actimeter); assay type: in vivo; conditions: mouse, with 10 mg/kg IP dextrorotatory amphetamine
# Protocol: (§3) 3. The study of the motility of the mice was also made by using Boissier's photoelectric actimeter, after amphetamine-acetyl-taurinate interaction according to the invention: the mice are treated simultaneously with 10 mg/kg (IP) of dextrorotatory amphetamine and with an optimal dose of acetyltaurinate.
# [6] = Hypothermia in the mouse (rectal temperature); assay type: in vivo; conditions: for hypothermia / reduction in the rectal temperature: intraperitoneal
# Protocol: (§4) 4. A study of the hypothermia in the mouse was effected by determining the rectal temperature of the mice 30 mins. before the intraperitoneal administration of the product, at the moment of this administration, then 30 mins., 1 hour, 2, 3 and 4 hrs. after the injection of the product.
# [7] = Hypothermia after amphetamine-acetyl-taurinate interaction in the mouse; assay type: in vivo
# Protocol: (§5) 5. The study of the hypothermia after amphetamine-acetyl-taurinate interaction according to the invention was made according to the same method as previously in the mouse, the animals being treated simultaneously with 30 mg/kg (IP) of dextrorotatory amphetamine and with an optimal dose of the product to be tested.
# [8] = Test of morphinic agitation in mice; assay type: in vivo, mouse; conditions: for effect type in the morphinic agitation test: 5-day treatment, 100, 500 and 2500 mg/Kg per os
# Excerpt: Furthermore, the neuro-muscular activity of the lithium N-acetyltaurinate has been evaluated in comparison with that of taurine and of the other salts of N-acetyltaurine, using the test of morphinic agitation.
# [9] = Human observation: chronic alcoholism with predelirium; assay type: in vivo
# Excerpt: (§6) A person . . . […] 2 suicide attempts. Predominance of psychomotive inhibition. […] a person . . .
# [10] = Neuro-muscular activity in the six pharmacological tests (summary); assay type: in vivo; conditions: mouse and rat
# Protocol: as §1, §2, §3, §4, §5
# (§7) 6. A test was also made of the appetite- and thirst-depressant activities in the rat.
# [11] = Chronic toxicity in rats over three months, renal histology; assay type: in vivo, rat
# Protocol: A study of the chronic toxicity in rats was conducted comparatively between lithium N-acetyltaurinate and lithium carbonate:
# For three months, rats received doses of 8 mg/Kg and 24 mg/Kg per day of lithium, first in the form or lithium carbonate, and in the form of lithium N-acetyltaurinate.
# [12] = Human observation: bipolar manic-depressive psychosis, lithemia and mood; conditions: one patient
# [13] = Appetite- and thirst-depressant activities in the rat; assay type: in vivo
# Excerpt: as §7
# [14] = in vivo
# [15] = Human observation: neuromuscular hyperexcitability; assay type: in vivo
# Excerpt: The following observation is given by way of example: a person has been treated for 7 years for a neuromuscular hyperexcitability,with a wide range of neuro-vegetative disorders. They present critical phenomena of lipothymia type, anxious crises with paroxysmal tachycardia. They have had four grand mal epileptic crises.
# as §6
# [16] = listed as N-acetyltaurinate of calcium
# [17] = listed as N-acetyl-taurinate of potassium
# [18] = listed as N-acetyl-taurinate of lithium
smiles,measurement,setting,value
"O=C(O)CC(O)(CC(=O)O)C(=O)O [lithium citrate, reference compound]",minimum lethal dose,[1],42 mg of lithium
"CC(=O)NCCS(=O)(=O)O [Example 5, N-acetyl-taurinate of calcium]",LD50,"[2]; intraperitoneal route, male mouse, mg of compound, listed as N-acetyltaurinate of calcium",1604 mg/kg
same,LD50,"[2]; oral route, male mouse, mg of compound, listed as N-acetyltaurinate of calcium",13230 mg/kg
same,investigation behaviour / exploratory activity,[3]; [16],increase
same,motive agitation,"[4]; low dose (100 mg/kg), listed as N-acetyltaurinate of calcium, 100 mg/kg",reduction
same,amphetaminic excitation,[5]; [16],does not modify
same,hypothermia / reduction in the rectal temperature,[6]; [16],significant reduction
same,hyperthermia,[7]; amphetamine interaction,does not modify
same,effect type in the morphinic agitation test,[8]; listed as Ca,"mono-phasic effect, antagonistic to the morphinic agitation even in small doses"
same,alcoholic weaning,[9]; 1.5 g daily oral,upkept
same,intellectual efficiency,[9]; 1.5 g daily oral,improved
same,tremblings,[9]; 1.5 g daily oral,considerably reduced
same,effect on attack of mental aberration with convulsions,[9]; venous perfusion 1 g per hour for three hours,sedation of the attack with a state of euphoria
"O=C([O-])[C@H](O)[C@@H](O)[C@H](O)[C@H](O)CO.[Li+] [lithium gluconate, reference compound]",effect on the morphinic agitation relative to lithium acetyltaurinate at 100 mg/Kg,[8]; potentiation in small doses,comparable
NCCS(=O)(=O)O [taurine],neuro-muscular activity in six tests,[10],without any activity
same,effect type in the morphinic agitation test,[8],no effect
"O=C(O)O [Lithium carbonate, reference compound]",LD50,"[2]; mouse, in vivo, ip",88 mg/kg
same,LD50,"[2]; mouse, in vivo, po",162 mg/kg
same,tubular renal lesions (histological study),"[11]; rats, 8 and 24 mg/Kg per day of lithium, three months",tubular renal lesions appear in all the treated animals
same,tubular renal lesions thirty days after the treatment has stopped,"[11]; rats, dose of 24 mg of lithium per Kg, 30 days after stop",the lesions persist
same,lithemia,[12]; 1 g/day,≤ 0.5 meq/liter
same,signs of intolerance,[12]; increased dose,"permanent tremblings: nauseas, vomitings, hypotension"
same,stability of the mood,[12],a stability of the mood is obtained
"CC(=O)NCCS(=O)(=O)O [Example 2, N-acetyl-taurinate of potassium]",LD50,"[2]; intraperitoneal route, male mouse, mg of compound, listed as N-acetyltaurinate of potassium",3234 mg/kg
same,LD50,"[2]; oral route, male mouse, mg of compound, listed as N-acetyltaurinate of potassium",8170 mg/kg
same,investigation behaviour / exploratory activity,[3]; [17],"increase in the investigation behaviour in the mouse, not proportional to the dose"
same,motive agitation,"[4]; dose not stated, listed as N-acetyl-taurinate of potassium",slight increase
same,amphetaminic excitation,[5]; [17],reduction
same,neuro-muscular activity in six tests,[10],neuro-muscular activity has been demonstrated
"CC(=O)NCCS(=O)(=O)O [Example 3, N-acetyl-taurinate of lithium]",acute toxicity compared with that of lithium carbonate,"[2]; male mice, intraperitoneal and oral routes",clearly reduced acute toxicity
same,LD50,"[2]; mouse, in vivo, ip, LD50",3880 mg/kg
same,LD50,"[2]; mouse, in vivo, ip, LD50 in the male mouse, intraperitoneal route",155 mg/kg
same,LD50,"[2]; mouse, in vivo, po, LD50",6630 mg/kg
same,LD50,"[2]; mouse, in vivo, po, LD50 in the male mouse",266 mg/kg
same,minimum lethal dose,[1],204 mg of lithium
same,toxicity with respect to lithium carbonate (acute and chronic renal),[11]; conclusion from acute and chronic toxicity studies,less toxic
same,tubular renal lesions thirty days after the treatment has stopped,"[11]; rat, in vivo",a reversion of the lesions is noted in all the animals
same,investigation behaviour / exploratory activity,[3]; [18],very clear increase
same,motility in free condition,[4],very clear increase
same,motive agitation,"[4]; dose not stated, listed as N-acetyl-taurinate of lithium",increase
same,amphetaminic excitation,[5]; [18],increase
same,hypothermia / reduction in the rectal temperature,[6]; [18],significant hypothermia
same,hypothermia after simultaneous injection of amphetamine,[7]; with 30 mg/kg IP dextrorotatory amphetamine,completely eliminated
same,appetite- and thirst-depressant actions,[13],very clear appetite- and thirst-depressant actions
same,taking of food and drink consumed,[13],very substantial reduction
same,potentiation of the morphinic agitation,"[8]; 100 mg/Kg per os, between the 75th and the 90th minute",45%
same,effect type in the morphinic agitation test,[8]; listed as lithium acetyltaurinate,biphasic effect
same,effect on the agitation caused by morphine sulphate,[8]; stronger doses (500 and 2500 mg/Kg) per os,antagonistic effect
same,stability of the mood,[14],same stability of the mood
"CC(=O)NCCS(=O)(=O)O [Example 4, N-acetyl-taurinate of magnesium]",LD50,"[2]; intraperitoneal route, male mouse, mg of compound, listed as N-acetyltaurinate of magnesium",1709 mg/kg
same,LD50,"[2]; oral route, male mouse, mg of compound, listed as N-acetyltaurinate of magnesium",17400 mg/kg
same,motive agitation,[4]; high dose (200 mg/kg),very clear reduction
same,motive agitation,"[4]; low dose (100 mg/kg), listed as N-acetyl-taurinate of magnesium, 100 mg/kg",increase
same,amphetaminic excitation,[5]; listed as N-acetyl-taurinate of magnesium,reduction
same,reduction in the maximum rectal temperature,[6]; 2 hours after the injection,very considerable reduction
same,reduction of rectal temperature after simultaneous injection of amphetamine,"[7]; with amphetamine, 1 hour after the injection",completely eliminated
same,effect type in the morphinic agitation test,[8]; listed as Mg,"mono-phasic effect, antagonistic to the morphinic agitation even in small doses"
same,general state of the patient,[15]; venous perfusion 1 g first ten days with 1.5 g/day per os,complete recovery of the general state
same,critical phenomena,[15]; verified with a recession of 13 months,disappearance of the critical phenomena
